Active and inactive are the calls of the source.
Experiments:
[1] = viability of BHK-21 cells – cell-based, secondary screen, cytotoxicity control for flavivirus guanylyltransferase probe project (AID 624078); assay type: functional
[2] = OVCAR8 cell viability loss – plate reader, dry powder samples, PAX8 project, dose response (AID 743197); assay type: functional, cell-based; conditions: OVCAR-8
[3] = A2780 cell killing – plate reader, dry powder samples, cytotoxicity control, dose response (AID 743046); assay type: functional, cell-based
Paired box protein Pax-8 = Paired box protein Pax-8 (Homo sapiens, UniProt Q06710); assay: PAX8 transcriptional activity inhibition in RMG-I – RMG-I cells, luciferase, cherry-pick, dose response (AID 687027); assay type: functional, cell-based;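 further: luciferase reporter driven by Pax8 target thyroperoxidase promoter measured by SteadyGlo luminescence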
[4] = biological target: Delta-type opioid receptor (Homo sapiens, UniProt P41143); assay: Late-stage results from the probe development effort to identify antagonists of OPRK1: fluorescence-based cell-based dose response OPRD1 counterscreen.; assay type: functional
Mu-type opioid receptor = Mu-type opioid receptor (Homo sapiens, UniProt P35372); assay: Late-stage results from the probe development effort to identify antagonists of OPRK1: luminescence-based cell-based dose response OPRM1 counterscreen.; assay type: functional
[5] = TB: CFU replicating Measured in Microorganism System Using Imaging - 7108-05_Inhibitor_Dose_DryPowder_Activity_Set2.; assay type: functional
[6] = growth inhibition of PfATP4-mutant resistant parasites – NITD609-resistant line, SYBR Green, dry powder, dose response (AID 1159571); assay type: functional, cell-based;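 further: parasites synchronized at ring stage by sorbitol before testing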
[7] = growth inhibition of yeast DHODH-expressing 3D7 parasites – SYBR Green, dry powder samples, dose response (AID 1159570); assay type: functional, cell-based;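 further: parasite growth measured after 72 hours of compound exposure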
[8] = Dd2 malaria parasite growth inhibition potency – SYBR Green, dry powder samples, dose response (AID 1159566); assay type: functional, cell-based;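 further: potency for growth inhibition with lower SYBR green DNA signal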
[9] = P. falciparum Dd2 growth inhibitors, dose response, SYBR Green, cherry-picked samples (AID 1159567); assay type: functional, cell-based
[10] = toxicity to human HepG2 hepatoma cells – cell-based, plate reader, dry powder samples, cytotoxicity control, dose response (AID 1159569); assay type: functional;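 further: inhibitor potency with signal falling toward the positive control level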
[11] = biological target: Heat shock protein HSP 90-alpha (Homo sapiens, UniProt P07900); assay: Luminescence-based dose response biochemical high throughput screening assay for inhibitors of the Heat Shock Protein 90 (HSP90). [Related pubchem assays: 1831 (Summary AID.), 1846 (Confirmation screen.), 1789 (Primary screen.)]
HEK293 = assay: viability loss in HEK293T cells – cell-based, ATP luminescence, cherry-pick samples, cytotoxicity control, dose response (AID 687005); assay type: functional; conditions: Homo sapiens;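 further: cells exposed to compound for 48 hours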
[12] = HEK293 Cytotoxicity Assay Measured in Cell-Based System Using Plate Reader - 7071-01_Inhibitor_Dose_CherryPick_Activity_Set2.; assay type: functional
[13] = SNU-C1 cell viability reduction, dose response, CellTiter-Glo luminescence (AID 1117323); assay type: functional, cell-based
[14] = cytotoxicity toward HT-29 cells – cell-based, CellTiter-Glo luminescence, IC50, dose response (AID 1117330); assay type: functional
[15] = cytotoxicity toward Colo320 cells – cell-based, CellTiter-Glo luminescence, IC50, dose response (AID 1117334); assay type: functional; conditions: COLO 320
[16] = CellTiter-Glo luminescence survival assay, SW480 colon tumor line, concentration-response curve, half-maximal inhibitory concentration (AID 1117338); assay type: functional
[17] = RKO cell viability reduction, dose response, CellTiter-Glo luminescence (AID 1117322); assay type: functional
[18] = Reduced DLD-1 viability, concentration-response, CellTiter-Glo luminescence (AID 1117352); assay type: functional
[19] = cytotoxicity toward HCT116 cells – cell-based, CellTiter-Glo luminescence, IC50, dose response (AID 1117332); assay type: functional; conditions: HCT-116

Paired box protein Pax-8, sequence (Q06710 whole entry): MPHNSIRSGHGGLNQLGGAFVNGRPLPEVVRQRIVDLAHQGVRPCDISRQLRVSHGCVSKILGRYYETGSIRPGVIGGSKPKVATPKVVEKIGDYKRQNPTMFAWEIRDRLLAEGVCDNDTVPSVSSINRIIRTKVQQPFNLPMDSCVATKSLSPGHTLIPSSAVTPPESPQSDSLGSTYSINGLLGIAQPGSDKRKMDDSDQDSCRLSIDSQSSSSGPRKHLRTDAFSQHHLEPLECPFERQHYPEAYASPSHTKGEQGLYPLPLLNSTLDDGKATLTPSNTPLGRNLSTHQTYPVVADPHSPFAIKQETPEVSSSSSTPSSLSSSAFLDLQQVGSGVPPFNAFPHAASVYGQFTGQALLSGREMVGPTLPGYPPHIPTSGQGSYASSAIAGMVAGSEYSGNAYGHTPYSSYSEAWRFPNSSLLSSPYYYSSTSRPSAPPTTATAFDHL
Delta-type opioid receptor, sequence (P41143 whole entry): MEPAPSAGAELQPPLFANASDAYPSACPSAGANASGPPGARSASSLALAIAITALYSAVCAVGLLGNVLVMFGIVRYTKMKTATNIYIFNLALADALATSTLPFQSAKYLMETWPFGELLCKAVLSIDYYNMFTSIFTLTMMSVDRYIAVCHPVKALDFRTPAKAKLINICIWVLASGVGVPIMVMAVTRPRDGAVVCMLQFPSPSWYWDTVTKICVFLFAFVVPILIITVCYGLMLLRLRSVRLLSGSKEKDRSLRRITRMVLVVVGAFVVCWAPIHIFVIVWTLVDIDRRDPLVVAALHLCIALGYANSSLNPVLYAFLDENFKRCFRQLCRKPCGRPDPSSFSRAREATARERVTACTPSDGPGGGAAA
Mu-type opioid receptor, sequence (P35372 whole entry): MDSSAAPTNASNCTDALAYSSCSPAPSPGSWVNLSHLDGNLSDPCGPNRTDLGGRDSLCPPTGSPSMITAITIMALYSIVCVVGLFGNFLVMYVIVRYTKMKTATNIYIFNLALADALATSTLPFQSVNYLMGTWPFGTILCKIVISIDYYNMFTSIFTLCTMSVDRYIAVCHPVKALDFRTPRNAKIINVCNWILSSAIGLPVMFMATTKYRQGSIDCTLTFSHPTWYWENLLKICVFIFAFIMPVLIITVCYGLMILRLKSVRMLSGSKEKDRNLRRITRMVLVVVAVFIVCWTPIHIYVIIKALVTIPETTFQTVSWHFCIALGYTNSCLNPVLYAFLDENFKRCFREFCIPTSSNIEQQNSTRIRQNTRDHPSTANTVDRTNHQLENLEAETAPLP

Question: For `O=S(=O)(Nc1cc(SCc2ccccc2)c(O)c2ccccc12)c1ccc(Cl)cc1`, which CC50 [1] is on record?
Answer: 15 µM (active)

Question: With `C[C@@H]1CN([C@@H](C)CO)C(=O)c2cc(NC(=O)Nc3ccc(C(F)(F)F)cc3)ccc2O[C@@H](C)CCCCO[C@@H]1CN(C)Cc1ccc2c(c1)OCO2` as the compound, how does the AC50 [2] read?
Answer: 57.3 µM (active)

Question: What about the AC50 [3] of the same compound?
Answer: 56.1 µM (active)

Question: And the AC50 (Paired box protein Pax-8)?
Answer: 5.64 µM (active)

Question: Which results are given for `COC(=O)c1cc(Br)cnc1N1CCC(NC2CCCC(O)C2)CC1` (configuration not stated)?
Answer: IC50 [4]: > 50 µM (inactive); IC50 (Mu-type opioid receptor): 16 µM (inactive)

Question: With `Cn1c(-n2c(=O)nc3n(C)c4ccccc4n3c2=O)nc2ccccc21` as the compound, how does the AbsAC90 [5] read?
Answer: 268.91 µM

Question: With `COc1ccc(S(=O)(=O)N2CCC3(CC2)CN(Cc2ccncc2)[C@@H](CO)c2[nH]c4cc(OC)ccc4c23)cc1` as the compound, how does the AC50 [6] read?
Answer: 1.67 µM (active)

Question: And the AC50 [7]?
Answer: 1.41 µM (active)

Question: And the AC50 [8]?
Answer: 1.17 µM (active)

Question: What about the AC50 [9] of the same compound?
Answer: 2.29 µM (active)

Question: What about the AC50 [10] of the same compound?
Answer: 22.9 µM (active)

Question: Which IC50 [11] does the source give for `Cc1cc(C(=O)Cn2nc(C(=O)O)c3ccccc3c2=O)c(C)n1CC(F)(F)F` here?
Answer: > 60 µM (not active)

Question: Which results are given for `CN1[C@@H]2c3ccc(-c4cccnc4)c(=O)n3C[C@@H]2[C@@H](CO)[C@@H]1C(=O)N1CCc2ccccc2C1`?
Answer: AC50 (HEK293): > 52 µM (inactive); AC50 [12]: > 52 µM (inactive)

Question: Which results are given for `CCn1cc(C(=O)O)c(=O)c2cnc(N3CCNCC3)nc21` [PIPEMIDIC ACID]?
Answer: IC50 [13]: > 20 µM (inactive); IC50 [14]: > 20 µM (inactive); IC50 [15]: > 20 µM (inactive); IC50 [16]: > 20 µM (inactive); IC50 [17]: > 20 µM (inactive); IC50 [18]: > 20 µM (inactive); IC50 [19]: > 20 µM (inactive)

— ChEMBL document CHEMBL1201862, “PubChem BioAssay data set” (2004)
